Experimental data reported in US20050215529A1, “Method of treating oxidative stress-associated conditions with isopentenyl diphosphate” (THE REGENTS OF THE UNIVERSITY OF MICHIGAN, priority 2004, published 2005).

Assays:
[1] = test system: human fibroblastoid M1 cells; assay: Comet assay, protection against H2O2-induced DNA damage; format: cell-based; conditions: M1 cells; for IC50: AR agonists and isoprenyls, 100 μM H2O2, Comet assay, read-out: IC50 (pM), DNA damage protection; for triggering of DNA damage protection: various concentrations, 100 μM H2O2
Protocol: (§1) A single-cell gel electrophoresis (SCGE) assay, known as the “Comer” assay was performed to detect/quantify DNA damage by identifying DNA-strand breakage in individual cells, for example. The assay was performed using a kit commercially-available from Trevigen, Inc., of Gaithersburg, Md., as “CometAssay™.” See P. J. McCarthy et al. (1997) Mutagenesis 12:209-214; A. R. Collins et al. (2001) Biochem. Soc. Trans. 29:337-341. Sub-confluent cells were washed with phosphate buffered saline (PBS) and detached from the tissue culture flasks using a 0.05% trypsin solution. After centrifugation, the cells were washed and re-suspended in serum-free DMEM medium. The cells were divided into Eppendorf tubes (1.5 ml), and centrifuged at 2500 rotations per minutes (rpm) for ten minutes. Signal-modulating agents were added and samples were kept in a 37° C. incubator for thirty minutes. In some experiments, the cells were pre-incubated with various inhibitors for the indicated times at 37° C. At the end of the incubation period with signal-modulating chemicals, the cells were washed with PBS and treated with 100 μM H2O2 in 0.5 ml PBS on ice for twenty minutes. Following the hydrogen peroxide treatment, the cells were immediately microfuged for fifteen seconds. The cells were twice washed with cold PBS, and re-suspended at 1.0×10^5 cells/ml in ice-cold PBS. Five microliter cell suspension were each mixed with 50 μl molten LMAgarose and, thereafter, the mixtures were placed onto slides (CometSlide™).
(§2) The slides were placed at 4° C. in the dark for ten minutes and subsequently immersed in pre-chilled Lysis Solution at 4° C. for an additional thirty minutes. Following this incubation, excess buffer was tapped off from the slides. Subsequently, the slides were placed in a 50 ml Coplin jar containing alkali buffer for thirty minutes at room temperature in the dark and then immersed in 50 ml of TBE buffer for five minutes. The slides were then placed flat onto a gel tray submerged in TBE buffer in a horizontal electrophoresis apparatus, and aligned equidistant from the electrodes. Electrophoresis was performed at one volt per centimeter (cm) for ten minutes. Following this electrophoresis, the samples were fixed in 100% methanol for five minutes and 100% ethanol for five minutes. After drying, 50 μl of diluted SYBR Green Concentrate was added onto each circle of agarose. Comet tail fluorescence intensity was quantified with a Diagnostic Instruments digitized camera, mounted on a Nikon Eclipse E400 microscope, using Scion Image software. Quantification of comet fluorescence was performed as described in P. J. McCarthy et al. (1997) Mutagenesis 12:209-214. Each data point was derived from 30 to 100 individual cells. The data are shown either in arbitrary fluorescent units, or as % DNA damage protection (i.e., the percent decrement in tail fluorescence intensity with test reagent, relative to the intensity recorded in cells treated with hydrogen peroxide only)±S.E.M.
A dose response analysis of DNA damage protection also was performed to determine the efficacy of various doses of isopentenyl diphosphate versus 2-chloroadenosine. The analysis was carried out by pre-incubating human fibroblastoid M1 cells for thirty minutes with different concentrations of isopentenyl diphosphate or 2-chloroadenosine prior to incubating the cells with 100 μM H2O2 to induce oxidative stress. Following induction of oxidative stress, DNA damage was quantified using the Comet assay, as described above.

[2] = test system: human fibroblastoid M1 cells; assay: Comet assay, inhibition of 2CA- or IPP-mediated DNA damage protection by antagonists/inhibitors; format: cell-based; conditions: for effect on 2CA-mediated DNA damage protection / effect on IPP-mediated DNA damage protection: M1 cells pre-incubated with antagonist/inhibitor (lactacystin 5 μM, lovastatin 5 μM, GGTI-2147 0.2 μM, FTI-277 1 μM; others various concentrations), then 100 μM H2O2; for effect on 2CA-mediated DNA damage protection: then 2CA; for effect on IPP-mediated DNA damage protection: then IPP; for IC50: AR antagonists, M1 cells, 100 μM H2O2, Comet assay, read-out: IC50 (pM), block of 2CA-mediated DNA damage protection
Protocol: as §1, §2
Specifically, […], human fibroblastoid M1 cells were incubated for thirty minutes in either H-89 or 8-bromoguanosine-3′,5′-cyclic monophosphate (8-Br-cGMP) (B), or for fifteen minutes in SNAP, at different concentrations. […] Following induction of oxidative stress, DNA damage was quantified using the Comet assay, as described above. Shown in FIGS. 14-16 are graphs illustrating the DNA damage protection as function of the molar concentration of H-89 (FIG. 14), 8-Br-cGMP (FIG. 15), and SNAP (FIG. 16).
In yet another test, human fibroblastoid M1 cells were pre-incubated for fifteen minutes with different concentrations of the A2bAR antagonist, enprofylline (Enpro).

[3] = test system: A1AR-transfected HEK293 cells; assay: Comet assay in A1AR-transfected HEK293 cells; format: cell-based, human; conditions: A1AR-transfected HEK293 cells, 100 μM H2O2
Protocol: A single-cell gel electrophoresis (SCGE) assay, known as the “Comer” assay was performed to detect/quantify DNA damage by identifying DNA-strand breakage in individual cells, for example. The assay was performed using a kit commercially-available from Trevigen, Inc., of Gaithersburg, Md., as “CometAssay™.” See P. J. McCarthy et al. (1997) Mutagenesis 12:209-214; A. R. Collins et al. (2001) Biochem. Soc. Trans. 29:337-341. Sub-confluent cells were washed with phosphate buffered saline (PBS) and detached from the tissue culture flasks using a 0.05% trypsin solution. After centrifugation, the cells were washed and re-suspended in serum-free DMEM medium. The cells were divided into Eppendorf tubes (1.5 ml), and centrifuged at 2500 rotations per minutes (rpm) for ten minutes. Signal-modulating agents were added and samples were kept in a 37° C. incubator for thirty minutes. In some experiments, the cells were pre-incubated with various inhibitors for the indicated times at 37° C. At the end of the incubation period with signal-modulating chemicals, the cells were washed with PBS and treated with 100 μM H2O2 in 0.5 ml PBS on ice for twenty minutes. Following the hydrogen peroxide treatment, the cells were immediately microfuged for fifteen seconds. The cells were twice washed with cold PBS, and re-suspended at 1.0×10^5 cells/ml in ice-cold PBS. […]
The slides were placed at 4° C. in the dark for ten minutes and subsequently immersed in pre-chilled Lysis Solution at 4° C. for an additional thirty minutes. […] Comet tail fluorescence intensity was quantified with a Diagnostic Instruments digitized camera, mounted on a Nikon Eclipse E400 microscope, using Scion Image software. Quantification of comet fluorescence was performed as described in P. J. McCarthy et al. (1997) Mutagenesis 12:209-214. […] The data are shown either in arbitrary fluorescent units, or as % DNA damage protection (i.e., the percent decrement in tail fluorescence intensity with test reagent, relative to the intensity recorded in cells treated with hydrogen peroxide only)±S.E.M. […]

Row | SMILES | triggering of DNA damage protection [1] | effect on 2CA-mediated DNA damage protection [2] | effect on IPP-mediated DNA damage protection [2] | further results
1 | CCNC(=O)C1OC(n2cnc3c(N)ncnc32)C(O)C1O (centres unmarked) [NECA, 5′-(N-ethylcarboxyamido)-adenosine] | triggered DNA damage protection |  |  | IC50 [1]: < 1000 pM
2 | Nc1nc2c(nc(Br)n2[C@@H]2O[C@@H]3COP(=O)(O)O[C@H]3[C@H]2O)c(=O)[nH]1 [8-Br-cGMP, 8-bromoguanosine-3′,5′-cyclic monophosphate] |  | dose-dependent inhibition of 2CA-mediated antioxidative signal |  | 
3 | O=S(=O)(NCCNCC=Cc1ccc(Br)cc1)c1cccc2cnccc12 [H-89, N-[2-(p-bromocynnamylamino)ethyl]-5-isoquinolinesulfonamide] |  | dose-dependent inhibition of 2CA-mediated antioxidative signal | the IPP-mediated effect was resistant | 
4 | C=C(C)CCOP(=O)(O)O [IMP, isopentenyl monophosphate] | failed to trigger antioxidative signaling |  |  | IC50 [1]: > 1e+07 pM
5 | CCCn1c(=O)[nH]c(=O)c2nc[nH]c21 [Enprofylline, enprofylline] |  | effectively blocked the signal | the IPP-mediated effect was resistant | IC50 [2]: 1.8e+06 pM
6 | CNC(=O)[C@H]1O[C@@H](n2cnc3c(NCc4cccc(I)c4)ncnc32)[C@H](O)[C@@H]1O [IB-MECA, N6-(3-iodobenzyl)adenosine-5′-N-methyluronamide] | failed to transduce the signal |  |  | IC50 [1]: > 1e+07 pM
7 | CC(C)=CCC/C(C)=C/CC/C(C)=C/CO[P@@](=O)(O)OP(=O)(O)O (stereo in doubt) [FPP, farnesyl diphosphate] |  |  |  | IC50 ([1]; Homo sapiens): > 1e+07 pM
8 | Cn1c(=O)c2c(nc(C=Cc3cccc(Cl)c3)n2C)n(C)c1=O [CSC, 8-(3-chlorostyryl) caffeine] |  | failed to block 2CA-mediated DNA damage protection |  | IC50 ([2]; Homo sapiens): > 1e+07 pM
9 | CC(C)=CCC/C(C)=C/CC/C(C)=C/CC/C(C)=C/COP(=O)(O)OP(=O)(O)O [GGPP, geranylgeranyl diphosphate] | effective in triggering antioxidative activity |  |  | IC50 [1]: 660 pM
10 | CCCn1c(=O)c2[nH]c(-c3ccc(OCC(=O)NCCN)cc3)nc2n(CCC)c1=O [XAC, xanthine amine congener] |  | effectively blocked the signal |  | IC50 [2]: 3.2e+06 pM
11 | COC(=O)[C@H](CCSC)NC(=O)c1ccc(NC[C@@H](N)CS)cc1-c1ccccc1 [FTI-277] |  | Neither GGTI-2147 (FIG. 24B) nor FTI-277 (FIG. 25) had a significant effect | had no effect on isopentenyl diphosphate activity | 
12 | CC(=O)N[C@@H](C(=O)O)C(C)(C)SN=O (racemic) [SNAP] |  | dose-dependent inhibition of 2CA-mediated antioxidative signal |  | 
13 | Nc1ncnc2c1nc(Br)n2[C@@H]1O[C@@H]2COP(=O)(O)O[C@H]2[C@H]1O [8-Br-cAMP, 8-bromo adenosine 3′,5′-cyclic monophosphate] | produced similar protection against oxidative DNA damage |  |  | DNA damage protection response [3]: responded efficiently
14 | CCCCC[C@H](O)/C=C/[C@H]1[C@H](O)CC(=O)[C@@H]1CCCCCCC(=O)O [PGE1, Prostaglandin E1] | induction of resistance to oxidative DNA damage |  |  | 
15 | CCCn1c(=O)c2[nH]c(C3CCCC3)nc2n(CCC)c1=O [DPCPX, [(3)H]1,3-dipropyl-8-cyclopentylxanthine] |  | failed to block 2CA-mediated DNA damage protection |  | IC50 [2]: > 1e+07 pM
16 | COC(=O)[C@H](CC(C)C)NC(=O)c1ccc(NCc2cnc[nH]2)cc1-c1cccc2ccccc12 [GGTI-2147] |  | Neither GGTI-2147 (FIG. 24B) nor FTI-277 (FIG. 25) had a significant effect | effectively blocked IPP-mediated DNA damage protection | 
17 | CCNC(=O)[C@H]1O[C@@H](n2cnc3c(N)nc(NCCc4ccc(CCC(=O)O)cc4)nc32)[C@H](O)[C@@H]1O [CGS21680, 2-[p-2-(carbonyl-ethyl)-phenyethylamino]-5′-N-ethylcarboxaminoadenosine] | failed to transduce the signal |  |  | IC50 ([1]; Homo sapiens): > 3e+07 pM
18 | CC[C@H](C)C(=O)O[C@H]1C[C@@H](C)C=C2C=C[C@H](C)[C@H](CC[C@@H]3C[C@@H](O)CC(=O)O3)[C@H]21 [lovastatin] |  | did not similarly block 2CA-mediated DNA damage protection signaling | completely blocked IPP-mediated DNA damage protection signaling | 
19 | CC(=O)N[C@@H](CSC(=O)[C@]1([C@@H](O)C(C)C)NC(=O)[C@H](C)[C@@H]1O)C(=O)O [lactacystin] |  | did not similarly block 2CA-mediated DNA damage protection signaling | blocked IPP-mediated DNA damage protection signaling | 
